System: pruritus (itch)
Assay: Topical administration to human subjects with psoriasis-associated pruritus
Assay type: in vivo
Details: person
Protocol: The efficacy of Manganese ortho tetrakis(N-n-butoxyethylpyridinium-2-yl)porphyrin (MnTnBuOE-2-PyP^5+) in treating pruritus (itch) when topically applied was evaluated in a person with large areas of moderately severe plaque-forming psoriasis on upper and lower portions of both legs, with each involved area being approximately 10-20 cm in diameter. These lesions were markedly excoriated with intense, persistent symptoms of pruritus. MnTnBuOE-2-PyP^5+ was formulated in Lipoderm at 0.01% and 0.1% concentrations producing a light brown cream which was applied b.i.d. to lesions on one extremity. Symptoms of pruritus were relieved within 10 to 15 minutes after topical application of MnTnBuOE-2-PyP^5+ and remained under control for several hours.
A second subject with psoriatic involvement of the scalp of moderate severity and associated with marked pruritus and scratching was topically treated with MnTnBuOE-2-PyP^5+ 0.1% in Lipoderm twice daily for 3 weeks.

[1] = plaque-forming psoriasis on both legs, 0.01% and 0.1% in Lipoderm, topical b.i.d.
[2] = psoriatic involvement of the scalp, 0.1% in Lipoderm, topical twice daily for 3 weeks

With “Manganese ortho tetrakis(N-n-butoxyethylpyridinium-2-yl)porphyrin [MnTnBuOE-2-PyP^5+]” the “time after topical application until symptoms of pruritus were relieved” value [1] was 10 to 15 min, the “time symptoms of pruritus remained under control” value [1] was “several hours” and the “comparison of efficacy of 0.01% and 0.1% concentrations” value (plaque-forming psoriasis on both legs, lesions treated with 0.01% vs 0.1% in Lipoderm) was “Equivalent efficacy”. The “effect of repeat application on pruritus” value (plaque-forming psoriasis on both legs, repeat topical application in Lipoderm) was “consistently reduced pruritus without tachyphylaxis”, the “resolution of pruritic symptoms” value [2] was “completely effective in resolving pruritic symptoms” and the “time after application until symptoms of pruritus were relieved” value [2] was “within minutes”. For the same substance, the “time symptoms of pruritus remained under control” value [2] was “up to 12 hours”.

— patent publication US11065259B2, “Methods of treating pruritus” (Duke University, priority 2014, dated 2021)
